Assay results: US10111901B2, “Beta-glucan in combination with anti-cancer agents affecting the tumor microenvironment” (Biothera, Inc., priority 2014, dated 2018)

Tests used:
mMoDC = assay: Flow cytometry of maturation markers on mature monocyte-derived dendritic cells (mMoDC); format: cell-based, human
Experimental: Given that macrophages and dendritic cells are the two key antigen presenting cell types that bridge innate and adaptive immunity, the phenotypic and functional effect of soluble β-glucan was also evaluated on human monocyte-derived dendritic cells (MoDC). Monocytes enriched from soluble β-glucan- or vehicle-treated whole blood were cultured in media containing the appropriate cytokines, GM-CSF plus IL-4, for differentiation of dendritic cells. Steps included in the method for in vitro culture and characterization of human MoDCs are outlined below.
The phenotypic and functional evaluation of mMoDC prepared from soluble β-glucan-treated whole blood of a high binder and low binder was carried out. mMoDCs from a high binder and a low binder were prepared as described above. mMoDCs were evaluated for CD80, CD83, CD86 and HLA-DR expression by flow cytometry, and median MFI was calculated for isotype control staining and surface antigen staining and the results are shown in Table 7.
MoDC derived from β-glucan-treated monocytes are more mature even in immunosuppressive conditions. MoDCs were prepared as described above. TCM was added to account for 70% of the volume of the culture on day 0 and was present throughout the culturing period. mMoDCs cultured in the presence of TCM were subsequently evaluated for phenotypic changes.

IFN-γ = IFN-γ ELISA of co-culture supernatants; format: cell-based, human
Experimental: CD14^+ monocytes from human whole blood were enriched using Ficoll gradient and magnetic bead separation. Enriched monocytes (5×10^5 cells per mL) were then cultured in either M1-polarizing (XVivo 10 media (Lonza Group) supplemented with 5% autologous serum and 100 ng/mL recombinant human granulocyte macrophage colony-stimulating factor (rhGM-CSF) (R&D Systems) or M2-polarizing (XVivo 10 media supplemented with 10% autologous serum and 50 ng/mL recombinant human macrophage colony-stimulating factor (rhM-CSF) (R&D Systems) conditions for 6 days. In experiments performed to evaluate the effect of β-glucan, whole blood was first incubated with vehicle (sodium citrate buffer) or 25 μg/mL soluble β-glucan for 2 hours at 37° C. and then the monocytes were isolated and differentiated. Morphology was checked before macrophages were harvested for phenotypic analysis. Culture medium of the day 6 macrophage culture (MCM) was collected, spun down to remove contaminated cell pellet and then frozen down for subsequent cytokine analysis by ELISA or used to setup a co-culture with CD3 & CD28-stimulated CD4 T cells (MCM-CD4 T) for evaluation of either surface markers or CD4 T cell proliferation. The macrophages were used to setup a co-culture with CD3 & CD28- or CD3 only-stimulated CD4 T cells (Mac-CD4 T) on day 6 for evaluation of either surface marker modulation or effect on CD4 T cell proliferation. For Mac-CD4 T cell proliferation study, M1 or M2 macrophages were cultured with CD3 & CD28- or CD3 only-stimulated, CFSE-labeled, autologous CD4 T cells at a 1:10 ratio. T cell proliferation was measured at the end of the experiment (day 9-day 11) by flow cytometry, and results are graphically shown as CFSE-dilution peaks. The assessment of CD3-only stimulated T cells was always done on day 11. Quantitative results were reported as the Division Index (the average number of cell divisions a population underwent) calculated for each of the triplicate wells in each of the culture conditions. Culture supernatants of Mac-CD4 T co-cultures were collected for subsequent cytokine analysis.
The culture supernatants from the CFSE dilution T-cell proliferation assay (FIG. 2B) were also measured for IFN-gamma levels by ELISA. […] Thus, β-glucan affects M2 to M1 repolarization and drives anti-tumorigenic Th1 polarization.
Modulation of IFN-γ and IL-4 production of vehicle- and β-glucan-treated M2 macrophages was then evaluated. […] Thus, M2 macrophages derived from β-glucan-treated monocytes are M1-like in high binder subjects.
M2 macrophages from 4 high binders and 4 low binders were prepared and evaluated for their ability to modulate CD4 T cell proliferation. The supernatants from the various CD4 T cell proliferation conditions were measured for IFN-γ by ELISA. Results shown in FIG. 10 are representative from 4 different experiments. Fold change over the IFN-γ levels produced in the co-cultures of vehicle-treated M2 macrophages and CD4 T cells are plotted for each of the 4 donors.

IL-4 = IL-4 analysis of co-culture supernatants; format: cell-based, human; details: co-cultures of β-glucan-treated M2 macrophages and CD4 T cells
Experimental: CD14^+ monocytes from human whole blood were enriched using Ficoll gradient and magnetic bead separation. Enriched monocytes (5×10^5 cells per mL) were then cultured in either M1-polarizing (XVivo 10 media (Lonza Group) supplemented with 5% autologous serum and 100 ng/mL recombinant human granulocyte macrophage colony-stimulating factor (rhGM-CSF) (R&D Systems) or M2-polarizing (XVivo 10 media supplemented with 10% autologous serum and 50 ng/mL recombinant human macrophage colony-stimulating factor (rhM-CSF) (R&D Systems) conditions for 6 days. In experiments performed to evaluate the effect of β-glucan, whole blood was first incubated with vehicle (sodium citrate buffer) or 25 μg/mL soluble β-glucan for 2 hours at 37° C. and then the monocytes were isolated and differentiated. Morphology was checked before macrophages were harvested for phenotypic analysis. […] T cell proliferation was measured at the end of the experiment (day 9-day 11) by flow cytometry, and results are graphically shown as CFSE-dilution peaks. […] Quantitative results were reported as the Division Index (the average number of cell divisions a population underwent) calculated for each of the triplicate wells in each of the culture conditions. […]
Modulation of IFN-γ and IL-4 production of vehicle- and β-glucan-treated M2 macrophages was then evaluated. […]

monocytes = assay: β-glucan binding to monocytes in whole blood, serum cross-over; format: cell-based, human
Experimental: To test this, M2 macrophages were prepared as described above with a few modifications. The whole blood of a low binder was spun down to remove the plasma and then the cells were reconstituted with serum obtained from a high binder. The reconstituted blood was treated with vehicle or β-glucan (25 μg/mL) for 2 hours at 37° C. The monocytes were evaluated for binding by using anti-β-glucan specific monoclonal antibody and subsequent flow cytometry.

MiaPaCa = assay: PD-L1 upregulation in MiaPaCa tumor cells by treated M2 macrophages; format: cell-based
Experimental: β-glucan- and vehicle-treated M2 macrophages and β-glucan-treated M2 macrophages+ABA were cultured with high binder serum and low binder serum to evaluate PD-L1 expression on tumor cells.

CD33+CD11b+ cells (MDSC) = assay: Suppression of T cell proliferation by cord blood-derived MDSC; format: cell-based, human; details: 2:1 ratio of CD8 T cells to MDSCs, vs citrate buffer
Experimental: In another study, human cord blood was enriched for CD34^+ cells and cultured for 9 days to produce CD33^+CD11b^+ cells (MDSC). The MDSC were then treated with soluble β-glucan or citrate buffer (control) and evaluated for their ability to suppress T cell proliferation. The T cell proliferation assay was carried out at a 2:1 ratio of CD8 T cells to treated or untreated MDSCs.

[1] = MoDC cultured in TCM, immunosuppressive conditions

β(1,6)-[poly-(1,3)-D-glucopyranosyl]-poly-β(1,3)-D-glucopyranose [β-glucan]
CD80 median MFI (mMoDC; MoDC cultured in TCM (70% of volume, from day 0), immunosuppressive conditions): 465
CD83 median MFI (mMoDC; [1]): 607
CD86 median MFI (mMoDC; [1]): 15797
HLA-DR median MFI (mMoDC; [1]): 361
CD80 median MFI (mMoDC; mMoDCs, high binder): 744
CD83 median MFI (mMoDC; mMoDCs, high binder): 466
CD86 median MFI (mMoDC; mMoDCs, high binder): 10759
HLA-DR median MFI (mMoDC; mMoDCs, high binder): 7049
CD80 median MFI (mMoDC; mMoDCs, low binder): 1197
CD83 median MFI (mMoDC; mMoDCs, low binder): 2924
CD86 median MFI (mMoDC; mMoDCs, low binder): 77749
HLA-DR median MFI (mMoDC; mMoDCs, low binder): 2960
IFN-gamma levels in culture supernatants (IFN-γ; M2 macrophage-CD4 T co-culture, FIG. 2D): concomitant increase in IFN-gamma production
IFN-γ production (IFN-γ; co-cultures of β-glucan-treated M2 macrophages and CD4 T cells, high binders): significantly increased production
IFN-γ production (IFN-γ; co-cultures under immunosuppressive conditions (TCM, IL-4), FIG. 4): significantly increased production
IFN-γ production (IFN-γ; co-cultures without exogenous CD28 antibody, FIG. 8B): significantly increased production
IFN-γ production (IFN-γ; low binder crossed-over with high binder's serum, FIG. 11B): significantly increased production
IFN-γ production (IFN-γ; β-glucan-treated M2 macrophages, low binders): nor increased IFN-γ production
production of immunosuppressive cytokine IL-4 (IL-4): no change
binding of β-glucan to monocytes (monocytes; low binder's whole blood with high binder's serum containing higher levels of ABA): significantly higher binding
binding of β-glucan to monocytes (monocytes; whole blood of a low binder): did not bind
expression of PD-L1 on tumor cells (MiaPaCa; β-glucan-treated M2 macrophages with addition of ABA, low binders): also increased expression
expression of PD-L1 on tumor cells (MiaPaCa; β-glucan-treated M2 macrophages, high binders): increased expression
suppression of T cell proliferation by MDSC (CD33+CD11b+ cells (MDSC)): less suppressive
